Laboratory results as given in patent US9364474B2, “Method for treatment of neurologic dysfunction” (MedDEV, Inc., priority 2004, dated 2016).
“Also recorded” adds a separate entry of the source. Like-named read-outs stand apart in the source and are kept apart here.

Assays:
[1] = test system: patient suffering from depression
Experimental: The treatment composition is suitably applied in a single daily dose, e.g., 0.01 mg of the MAO-A agonist in 0.05 ml of transdermal cream applied once every morning. Caffeine may also be included in the composition to compensate for the anti-hypertensive effect of the preferred reserpine; the caffeine may suitably be included in an amount from about 50-100 mg/dose.
Treatment was in the form of 0.01 mg of reserpine per 0.05 ml of transdermal cream, applied transdermally once a day in the morning.
The treatment consisted of 0.01 mg of reserpine per 0.05 ml of cream, applied transdermally by rubbing the cream into the skin once a day in the morning.
The treatment consisted of 0.01 mg of the reserpine per 0.05 ml of cream, applied transdermally by rubbing the cream into the skin once a day in the morning.
The patient discontinued the use of nortriptyline and the same day started the treatment of the present invention, using 0.01 mg of the reserpine per 0.05 ml cream, applied transdermally by rubbing the cream into the skin once a day in the morning.
The patient then started the treatment of the present invention, using 0.01 mg of the MAO-A activity stimulator (reserpine) per 0.05 ml cream, applied transdermally by rubbing the cream into the skin once a day in the morning.

patient with Autism = assay: Case examples: patients with Autism (ASD), transdermal reserpine (with prior medication history); format: in vivo, human; details: for outcome of prior reserpine treatment: reserpine 0.01 mg/day
Experimental: The treatment composition is suitably applied in a single daily dose, e.g., 0.01 mg of the MAO-A agonist in 0.05 ml of spray solution applied once every morning.
Prior to administration of the present invention (transdermal reserpine), the patient's parents were provided with an informed consent documenting the potential risks, benefits and alternatives to this treatment. The patient was started on a dose of Reserpine at a 4× dilution resulting in a total dose of 0.01 mg. […] They were also given approximately 1400 mg of Calcium every morning.

[2] = test system: resting and evoked activity of the brain of patient with Autism; assay: Quantitative Electroencephalogram (qEEG, Neuroguide 2.5) in ASD patient; format: in vivo, human; details: ASD Example One
Experimental: In a paper by Thatcher et al, an Autistic signature was reported. […] Analysis was conducted using Neuroguide 2.5, a widely accepted and statistically valid instrument (Thatcher et al, 2003).

[3] = test system: patient diagnosed with chronic schizophrenia; assay: Case example: patient with chronic schizophrenia, transdermal reserpine spray (with prior medication history); format: in vivo, human
[4] = in the human body; cited from earlier work
MAO-A = details: Youdim & Sandler (1968); cited from earlier work
aldehyde dehydrogenase = details: literature; cited from earlier work
Autistic children = details: cited from earlier work
schizophrenic patients = details: Shepherd and Watt 1956; 0.75 mg per day; cited from earlier work
[5] = ASD Example Three, 0.01 mg per day
[6] = ASD Example Three, continued 0.01 mg per day
[7] = ASD Example Two, 0.01 mg per day
[8] = Schizophrenia Example One, first day
[9] = Schizophrenia Example One, fourth day
[10] = Schizophrenia Example One, next 2 days

COC(=O)[C@H]1[C@H]2C[C@@H]3c4[nH]c5cc(OC)ccc5c4CCN3C[C@H]2C[C@@H](OC(=O)c2cc(OC)c(OC)c(OC)c2)[C@@H]1OC [reserpine]
effect on symptoms of depression ([1]; Depression Example Five, 0.002 mg, other symptoms persisted): alleviation of their symptoms of feeling hopelessness and “doom and gloom”
effect on symptoms of depression ([1]; Depression Example Five, 0.004 mg, third day, fatigue and insomnia still experienced): improvement in their emotions
effect on symptoms of depression ([1]; Depression Example Five, 0.006 mg per day): all of the patient's symptoms of depression were successfully alleviated
return of symptoms on long-term treatment ([1]; Depression Example Five, eight consecutive months, 0.006 mg per day transdermally): no return of the symptoms of depression
time to resolution of fatigue and loss of energy after first dose ([1]; Depression Example Four: person, 0.01 mg of reserpine per 0.05 ml cream transdermally once a day, nortriptyline discontinued): one
outcome after dose increase during stressful event ([1]; Depression Example Four, 0.02 mg for one week): insomnia and fatigue resolved
return of symptoms on long-term treatment ([1]; Depression Example Four, 10 months of consecutive daily treatment, 0.01 mg): no return of the symptoms listed above
outcome after return to the lower dose ([1]; Depression Example Four, returned to 0.01 mg dose): no return of any symptoms of depression
time to significant improvement in state of mind after first application ([1]; Depression Example One: 250-pound person, 0.01 mg of reserpine per 0.05 ml of transdermal cream once a day): four
weight lost during the treatment ([1]; Depression Example One, 0.01 mg transdermal once a day): > 20 pounds
status of prior symptoms of depression on continued treatment ([1]; Depression Example One, 0.01 mg transdermal, consecutive 24-hour dosing regimen): remains free of all of the prior symptoms
time from last dose to beginning return of symptoms ([1]; Depression Example One, dose forgotten for a day): about 32 hours
time to freedom from all symptoms after applying the missed dose ([1]; Depression Example One, dose missed for 72 hours): one
marijuana use during the treatment ([1]; Depression Example Three): has not used any marijuana during the treatment
time to resolution of pessimism and negative mood aspects after first dose ([1]; Depression Example Three: 220-pound person, depression and substance abuse, 0.01 mg of reserpine per 0.05 ml of cream transdermally once a day): two
cravings for substances of abuse ([1]; Depression Example Three, after first dose 0.01 mg): no cravings for marijuana or alcohol
outcome after dose decrease ([1]; Depression Example Three, dose decreased to 0.0075 mg of reserpine): symptoms resolved that same day
weight lost ([1]; Depression Example Three, first 60 days): five
weight loss after resuming the treatment ([1]; Depression Example Two): 1-2 pound per week
time to increased energy after applying the dose ([1]; Depression Example Two: 175-pound person, 0.01 mg of reserpine per 0.05 ml of cream transdermally once a day): one
time to resolution of all perceptible symptoms after first application (except slight problems with memory) ([1]; Depression Example Two, 0.01 mg transdermal): ≤ 10 h
return of symptoms during treatment ([1]; Depression Example Two, 30 consecutive days): no return of their symptoms
time to resolution of symptoms after resuming the treatment ([1]; Depression Example Two, after 10 day interruption): one
total weight lost ([1]; Depression Example Two, first 50 days): 15 pounds
symptoms during interruption of treatment ([1]; Depression Example Two, treatment interrupted for 10 days): all of the symptoms returned
time to improvement or resolution of symptoms after first application ([1]; each of the depression examples): 1 to 4 h
course of headache after dose reduction ([1]; human, in vivo): resolved immediately
effect of too high a dose ([1]; human, in vivo): undesirable increase in the symptoms of depression
negative side effects ([1]; human, in vivo): no significant negative side effects
side effect at starting dose ([1]; human, in vivo): headache that did not resolve spontaneously the first day
effect of starting dose (patient with Autism; ASD Example One: person, transdermal, total dose of 0.01 mg): some increased hyperactivity
motor hyperactivity (patient with Autism; ASD Example One, 0.005 mg): mild increase in motor hyperactivity
temper outbursts during the course of treatment (patient with Autism; ASD Example One, 0.005 mg, no quetiapine administration needed): no temper outbursts
anxiety (patient with Autism; ASD Example One, after three weeks of treatment): markedly decreased amount of anxiety
social interactions, language and attention (patient with Autism; ASD Example One, after three weeks, reduced dose 0.005 mg transdermal): significant improvements in their social interactions, language, and attention; also recorded: started using several meaningful sentences in succession
“stimming” (banging of the plastic sticks) (patient with Autism; ASD Example Three: person, transdermal reserpine 0.01 mg per day, immediately): reduced to only infrequent occurrence
speech after 2 months (patient with Autism; ASD Example Three, 0.01 mg): shouted out very clearly the words, “I'm hungry”
behavior by the second day of administration (patient with Autism; [5]): left their clothes on without supervision
social response and language comprehension (parents' report) (patient with Autism; [5]): will now look at them and smile when spoken to and appears to understand language better
speech within the first 30 days (patient with Autism; [5]): started making some new speech sounds
continued course (patient with Autism; [6]): subtle slow improvements in social behavior, speech, attention span, and awareness and interaction with their environment
side effects (patient with Autism; [6]): without any side effects
attention span (patient with Autism; ASD Example Two: person, transdermal reserpine 0.01 mg per day, immediately): increase attention span
affectionate behavior (patient with Autism; [7]): become more affectionate toward their parents and grandparents
speech (patient with Autism; [7]): all of their speech is clear and comprehensible
time they could stay focused on a task (patient with Autism; [7]): ≥ 30 min
effect of increased dose (patient with Autism; ASD Example Two, 0.015 mg per day, off gluten free diet): very hyperactive and aggressive
outcome after dose decreased back (patient with Autism; ASD Example Two, back to 0.01 mg per day, off gluten free diet): maintained their improvements in speech, social behavior, and attention span
outcome of prior reserpine treatment (patient with Autism; Homeopathic Example One: person): Substantial improvements
outcome of prior reserpine treatment (patient with Autism; Homeopathic Example Two: person): substantial improvement
urinary calcium excretion (patient with Autism; as a result of reserpine administration): increase in the amount of calcium excreted in the urine
change in quantitative Electroencephalogram ([2]; after three weeks of treatment (FIG. 5)): significant change in their quantitative Electroencephalogram
High Beta activity in qEEG ([2]; increased after starting HBOT, after starting transdermal reserpine): appears to subside
side effects after first application ([3]; Schizophrenia Example One: person, transdermal reserpine via metered sprayer on forearm, Abilify stopped the day before): feeling severely depressed; also recorded: rapid heart rate, and anxiety
time to onset of feeling severely depressed after rubbing the spray into skin ([3]; Schizophrenia Example One, first application): ≤ 30 s
effect on symptoms of schizophrenia (report) [3, 8]: more focused, they had clearer thoughts
time to resolution of side effect symptoms after applying the spray [3, 8]: 2 to 3 h
side effects [3, 9]: none of these side effect symptoms occurred
task completion [3, 9]: completed a list of chores that they gave them without supervision
severity of returning side effects [3, 10]: slightly less severe
time to resolution of side effect symptoms after applying the dose [3, 10]: ≤ 2 h
behavior when required calcium was not taken ([3]; Schizophrenia Example One, sixth day, 2,000 mg calcium omitted): became very aggressive
effect on blood calcium without additional calcium ([3]; without taking additional calcium daily): can cause hypocalcemia
therapeutic half-life [4]: 33 h
effect on MAO-A (MAO-A): activate MAO-A
effect on aldehyde dehydrogenase (aldehyde dehydrogenase): inhibit aldehyde dehydrogenase
average optimum dose (Autistic children; Lehman et al 1957, oral): 5 mg per day
optimum dose (Autistic children; Lehman et al 1957, oral, improvements only within this range, per day): 3 to 7 mg
effectiveness in autism (Autistic children; Macready 2001, doses of 0.25-1.8 mg/day): may be effective in autism
effect of low dose in schizophrenia (schizophrenic patients): resembling more an inert substance than the drug
